Test results reported in ChEMBL document CHEMBL1909046, “DrugMatrix in vitro pharmacology data”.

Experiments:
[1] = target: T1, Substance-K receptor (Homo sapiens, UniProt P21452); assay type: cell membranes, CHO, Membrane; conditions: cho; further: in other assays of this panel Not Active means under 50% inhibition at 10 µM
T1 sequence (P21452 whole entry): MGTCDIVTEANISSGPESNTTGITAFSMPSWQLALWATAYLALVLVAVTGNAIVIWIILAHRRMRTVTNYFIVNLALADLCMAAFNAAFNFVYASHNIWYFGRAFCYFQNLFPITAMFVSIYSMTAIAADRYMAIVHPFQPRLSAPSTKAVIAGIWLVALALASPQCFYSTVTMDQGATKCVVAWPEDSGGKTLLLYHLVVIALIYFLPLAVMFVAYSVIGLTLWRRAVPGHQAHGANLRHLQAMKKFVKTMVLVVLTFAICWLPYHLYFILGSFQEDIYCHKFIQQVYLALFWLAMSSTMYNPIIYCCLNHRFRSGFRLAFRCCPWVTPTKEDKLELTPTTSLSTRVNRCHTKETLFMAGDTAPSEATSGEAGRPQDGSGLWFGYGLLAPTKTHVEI

[2] = target: Kappa-type opioid receptor (Homo sapiens, UniProt P41145); assay: DRUGMATRIX: Opiate kappa (OP2, KOP) radioligand binding (ligand: [3H] Diprenorphine); assay type: cell membranes, HEK293, Membrane; conditions: hek293; Not Active = under 50% inhibition at 10 µM
[3] = target: T2, Alpha-2C adrenergic receptor (Homo sapiens, UniProt P18825); assay: DRUGMATRIX: Adrenergic Alpha-2C radioligand binding (ligand: [3H] MK-912); assay type: cell membranes, Sf9, Membrane; conditions: sf9
T2 sequence (P18825 whole entry): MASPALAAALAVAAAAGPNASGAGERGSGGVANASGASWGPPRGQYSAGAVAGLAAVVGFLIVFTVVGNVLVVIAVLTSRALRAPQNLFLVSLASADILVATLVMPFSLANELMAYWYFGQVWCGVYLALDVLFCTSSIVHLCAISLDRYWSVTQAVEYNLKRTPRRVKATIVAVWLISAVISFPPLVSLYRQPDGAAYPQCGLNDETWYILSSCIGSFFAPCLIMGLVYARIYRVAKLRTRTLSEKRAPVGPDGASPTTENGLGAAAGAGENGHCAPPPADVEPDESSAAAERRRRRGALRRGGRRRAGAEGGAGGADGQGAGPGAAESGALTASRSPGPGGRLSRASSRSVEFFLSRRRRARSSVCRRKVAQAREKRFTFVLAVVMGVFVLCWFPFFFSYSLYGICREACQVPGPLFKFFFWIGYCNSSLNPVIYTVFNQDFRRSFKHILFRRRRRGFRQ

[4] = target: T3, Vasoactive intestinal polypeptide receptor 1 (Homo sapiens, UniProt P32241); assay type: cell membranes, Membrane; conditions: ht-29; further: in other assays of this panel Not Active means under 50% inhibition at 10 µM
T3 sequence (P32241 whole entry): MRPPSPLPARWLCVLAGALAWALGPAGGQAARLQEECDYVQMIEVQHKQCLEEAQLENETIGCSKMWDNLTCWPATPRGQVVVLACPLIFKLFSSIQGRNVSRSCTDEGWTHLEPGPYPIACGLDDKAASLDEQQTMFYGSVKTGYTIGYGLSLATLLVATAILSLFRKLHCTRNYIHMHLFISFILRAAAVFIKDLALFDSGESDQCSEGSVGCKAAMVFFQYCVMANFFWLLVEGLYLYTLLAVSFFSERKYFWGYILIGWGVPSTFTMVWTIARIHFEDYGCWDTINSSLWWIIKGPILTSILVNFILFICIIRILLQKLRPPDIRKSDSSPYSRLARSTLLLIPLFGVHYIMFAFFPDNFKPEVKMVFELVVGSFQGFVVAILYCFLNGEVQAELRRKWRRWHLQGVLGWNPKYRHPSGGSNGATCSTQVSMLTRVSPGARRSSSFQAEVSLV

[5] = DRUGMATRIX: Nicotinic Acetylcholine radioligand binding (ligand: [125I] Epibatidine); assay type: cell membranes, Membrane; conditions: imr-32; Not Active = under 50% inhibition at 10 µM
[6] = DRUGMATRIX: Glutamate, Kainate radioligand binding (ligand: [3H] Kainic acid); assay type: cell membranes, Rattus norvegicus, Wistar, Brain, Membrane; conditions: Not Active = under 50% inhibition at 10 µM
[7] = DRUGMATRIX: GABAA, Flunitrazepam, Central radioligand binding (ligand: [3H] Flunitrazepam); assay type: cell membranes, Rattus norvegicus, Wistar, Brain, Membrane; conditions: Not Active = under 50% inhibition at 10 µM
[8] = DRUGMATRIX: GABAA, Chloride Channel, TBOB radioligand binding (ligand: [3H] TBOB); assay type: cell membranes, Rattus norvegicus, Wistar, Cerebral cortex, Membrane; conditions: Not Active = under 50% inhibition at 10 µM
[9] = target: Beta-2 adrenergic receptor (Homo sapiens, UniProt P07550); assay: DRUGMATRIX: Adrenergic beta2 radioligand binding (ligand: [3H] CGP-12177); assay type: cell membranes, Membrane; conditions: cho; Not Active = under 50% inhibition at 10 µM
[10] = target: T4, C-C chemokine receptor type 4 (Homo sapiens, UniProt P51679); assay type: cell membranes, Membrane; conditions: chem-1; further: in other assays of this panel Not Active means under 50% inhibition at 10 µM
T4 sequence (P51679 whole entry): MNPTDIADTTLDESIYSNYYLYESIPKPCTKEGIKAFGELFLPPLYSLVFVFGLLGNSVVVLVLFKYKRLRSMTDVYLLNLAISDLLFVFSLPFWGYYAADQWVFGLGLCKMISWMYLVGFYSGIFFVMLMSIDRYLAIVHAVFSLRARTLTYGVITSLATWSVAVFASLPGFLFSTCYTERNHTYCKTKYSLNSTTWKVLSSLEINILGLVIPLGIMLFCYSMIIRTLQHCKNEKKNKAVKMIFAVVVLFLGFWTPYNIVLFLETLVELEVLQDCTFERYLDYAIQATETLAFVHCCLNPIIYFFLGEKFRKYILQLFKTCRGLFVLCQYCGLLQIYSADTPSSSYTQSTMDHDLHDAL

[11] = DRUGMATRIX: Phosphodiesterase PDE4 enzyme inhibition (substrate: [3H]cAMP + cAMP); conditions: u-937; Not Active = under 50% inhibition at 10 µM

Kappa-type opioid receptor, sequence (P41145 whole entry): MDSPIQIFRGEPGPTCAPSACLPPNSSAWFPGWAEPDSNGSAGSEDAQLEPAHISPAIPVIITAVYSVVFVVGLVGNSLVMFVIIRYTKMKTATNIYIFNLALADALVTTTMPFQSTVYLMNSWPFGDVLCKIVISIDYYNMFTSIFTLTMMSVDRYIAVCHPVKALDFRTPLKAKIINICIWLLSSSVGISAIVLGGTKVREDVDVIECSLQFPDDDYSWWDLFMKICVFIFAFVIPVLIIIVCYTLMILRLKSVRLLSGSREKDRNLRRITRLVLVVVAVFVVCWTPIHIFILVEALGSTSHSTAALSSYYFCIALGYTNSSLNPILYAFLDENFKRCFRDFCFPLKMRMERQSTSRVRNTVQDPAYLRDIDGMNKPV
Beta-2 adrenergic receptor, sequence (P07550 whole entry): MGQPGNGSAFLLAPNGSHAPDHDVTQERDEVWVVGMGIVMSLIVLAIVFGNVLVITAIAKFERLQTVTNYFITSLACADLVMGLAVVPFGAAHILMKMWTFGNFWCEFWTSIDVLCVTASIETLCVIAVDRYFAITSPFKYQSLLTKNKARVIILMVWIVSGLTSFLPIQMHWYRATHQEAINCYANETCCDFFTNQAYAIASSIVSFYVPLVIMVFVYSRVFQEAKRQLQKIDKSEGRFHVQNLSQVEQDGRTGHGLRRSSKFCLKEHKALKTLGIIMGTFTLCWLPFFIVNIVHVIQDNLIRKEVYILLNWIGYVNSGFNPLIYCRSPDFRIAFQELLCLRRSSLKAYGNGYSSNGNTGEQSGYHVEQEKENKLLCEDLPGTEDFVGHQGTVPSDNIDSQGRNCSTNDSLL

C[C@@H](N)[C@H]1CC[C@H](C(=O)Nc2ccncc2)CC1 [Y-27632]
Not Active: IC50 [1] | IC50 [2] | IC50 [3] | IC50 [4] | IC50 [5] | Ki [5] | IC50 [6] | Ki [6] | IC50 [7] | Ki [7] | IC50 [8] | Ki [8] | IC50 [9] | IC50 [10] | IC50 [11] | Ki [11]

[Cl-].[Cl-].[Zn+2] [ZINC CHLORIDE]
Not Active: IC50 [1] | IC50 [2] | IC50 [3] | IC50 [4] | IC50 [5] | Ki [5] | IC50 [6] | Ki [6] | IC50 [7] | Ki [7] | IC50 [8] | Ki [8] | IC50 [9] | IC50 [10] | IC50 [11] | Ki [11]
